Marks after values point to notes of the source that are not given here.
Experiments:
[1] = test system: human peripheral blood mononuclear cells; assay: Human PBMC chemotaxis and CX3CR1 expression in modified Boyden chamber; type: cell-based; settings: for Chemotactic Indices / CX3CR1 Expression (%) Lower / CX3CR1 Expression (%) Upper: 6 h
Method: Leukocyte chemotaxis toward Fkn, G glycoprotein or media was measured according to Boyden^46 using 24 well plates (Costar, Cambridge, Mass.) with 3 μm filter inserts (Nalge Nunc, Rochester, N.Y.) coated with an extracellular matrix consisting primarily of laminin, collagen IV and proteoglycan (ECM, Sigma, St. Louis, Mo.). For murine studies, 5×10^5 naïve spleen cells was placed in the upper chamber and 10 nM mouse Fkn or 10 nM G glycoprotein, anti-CX3CR1 antibody, anti-G or anti-F glycoprotein monoclonal antibody, normal rabbit sera, rabbit anti-CCR5 sera or media was placed in the upper or lower chamber as appropriate. For human studies, 10^6 density gradient purified (Lymphocyte Separation Media, ICN Biomedicals, Aurora, Ohio, per manufacture instructions) peripheral blood mononuclear cells (PBMC) from normal human adult donors was placed in the upper chamber in the presence or absence of 1 μM peptide RT33, and 10 nM human Fkn, 10 nM G glycoprotein or 1 μM peptide RT33 placed in the lower chambers. The modified Boyden chamber was incubated at 37° C. for 4-6 h, the inserts removed, washed in PBS (GIBCO BRL), fixed in 3% gluteraldehyde and stained in formalin-buffered 0.01% crystal violet. Chemotactic cells were visualized with a microscope. Chemotactic cells were analyzed for CX3CR1 expression by collecting cells from the upper or lower modified Boyden chambers, antibody staining (2A9-1) and flow cytometry as described. Leucocytes chemotactic toward G or Fkn expressed a higher percent of CX3CR1 in the lower (25-30%) versus upper chamber (7-11%).
Leukocyte chemotaxis and percent positive CX3CR1 expression on human PBMC after a 6 h chemotaxis assay were determined. The percentage of cells positive for CX3CR1 in both upper and lower modified Boyden chambers are shown. Chemotactic indices were determined from the fold increase of leukocyte migration toward the chemoattractant, i.e. Fkn, G glycoprotein or peptide RT33, over the leukocyte migration toward media alone. TCM=tissue culture media.

RSV = RSV plaque reduction by small molecule peptide inhibitors on Vero cells (Example II); type: cell-based, RSV/A2; settings: peptide added to heparin 5 μg/ml; in words
Method: Vero cells were treated with PBS, RT33, RT34, Δ+1, Δ−1 and EYp1 peptides (100 μm) in the presence (B) or absence of heparin (A) (5 μg/ml). Percentage inhibition was determined by dividing the mean plaque forming units (PFU) of treated Vero cells by the mean PFU of PBS-treated Vero cells.
Different concentrations of the G glycoprotein peptides and/or 5 μg/ml heparin (Sigma) were diluted in Dulbecco's phosphate buffered saline (D-PBS; GIBCO) and added to Vero cell monolayers for 1 h at 37° C. Pre-treated Vero cells were infected with 10^6 PFU of RSV/A2 diluted in serum-free DMEM (GIBCO) for 2 h at 37° C., after which DMEM (GIBCO) containing 10% FBS (Hyclone, Logan, Utah) was added, and the infected cells incubated at 37° C. for 3-4 days. Plaques were enumerated by immunostaining with monoclonal antibodies against the G and F glycoproteins (130-2G and 131-2A, respectively), as described (54,55).

CD3+ BAL cells = assay: Intracellular cytokine expression by CD3+ T cells following in vivo peptide treatment; parameters: species or system BALB/c mice
Method: On day −1, prior to RSV infection, mice were i.p. treated (0.1 ml/mouse) with 100 μM of G glycoprotein peptides RT33 (CWAIC) (SEQ ID NO: 12), RT34 (lacks the CX3C motif) or peptides with changes in the CX3C motif (Δ+1, Δ−1, EYp1). Control mice were treated with PBS containing a similar dilution of DMSO used to solubilize the peptides.
Intracellular cytokine staining was modified for microculture staining as described (55, 57). Briefly, BAL cells were incubated in PBS containing Golgi Stop (Pharmingen) for 3 h at 37° C. to allow for accumulation of intracellular cytokines. The cells were washed in PBS containing 1% bovine serum albumin, blocked with 10% normal mouse sera diluted in PBS containing 1% bovine serum albumin, and stained (4° C., 30 min) with an appropriate dilution of anti-CD3 antibody, fixed and permeabilized in Cytofix/Cytoperm (Pharmingen). The cells were washed in Cytofix/Cytoperm buffer and stained (4° C., 30 min) with appropriate dilutions of anti-IL-2 (JES6-5H4), anti-IL-4 (BVD4-1D11), anti-IL-5 (TRFK5), IL-10 (JES3-16E3), anti-IFNγ (XMG1.2), or anti-TNFα (MP6-XT22) antibodies (Pharmingen) diluted in Cytofix/Cytoperm. Extra- and intracellular staining was analyzed by flow cytometry using a FACScan and Cell Quest software (Becton Dickinson, San Diego, Calif.). Total cytokine expression by CD3+ T cells was determined from the percent cytokine expression of CD3+ T cells and total number of cells recovered. The total number of CD3+ BAL cells expressing a particular cytokine was determined by multiplying the total number of BAL cells by the percent CD3+ cells expressing that particular cytokine.

[2] = TCM in upper chamber, substance in lower chamber (10 nM G or Fkn, 1 μM RT33)
[3] = TCM in upper chamber, substance in lower chamber
[4] = day 3 pi, peptide 24 hours prior to RSV infection
[5] = 1 μM RT33 in upper chamber, Fkn in lower chamber
[6] = 1 μM RT33 in upper chamber, G glycoprotein in lower chamber

Row | Molecule | Chemotactic Indices [1, 2] | CX3CR1 Expression (%) Lower [1, 3] | CX3CR1 Expression (%) Upper [1, 3] | Total IC cytokine Expressing CD3^+ BAL cells (×10^3) ± SEM: IFNγ (CD3+ BAL cells; day 3 pi) | Total IC cytokine Expressing CD3^+ BAL cells (×10^3) ± SEM: IL-4 (CD3+ BAL cells; day 3 pi) | Total IC cytokine Expressing CD3^+ BAL cells (×10^3) ± SEM: IL-5 (CD3+ BAL cells; day 3 pi) | Total IC cytokine Expressing CD3^+ BAL cells (×10^3) ± SEM: IL-6 (CD3+ BAL cells; day 3 pi) | Total IC cytokine Expressing CD3^+ BAL cells (×10^3) ± SEM: TNFα (CD3+ BAL cells; day 3 pi) | Total IC cytokine Expressing CD3^+ BAL cells (×10^3) ± SEM: IL-2 (CD3+ BAL cells; [4]) | Total IC cytokine Expressing CD3^+ BAL cells (×10^3) ± SEM: IFNγ (CD3+ BAL cells; day 5 pi) | Total IC cytokine Expressing CD3^+ BAL cells (×10^3) ± SEM: IL-2 (CD3+ BAL cells; day 5 pi) | Total IC cytokine Expressing CD3^+ BAL cells (×10^3) ± SEM: IL-4 (CD3+ BAL cells; day 5 pi) | Total IC cytokine Expressing CD3^+ BAL cells (×10^3) ± SEM: IL-5 (CD3+ BAL cells; day 5 pi) | Total IC cytokine Expressing CD3^+ BAL cells (×10^3) ± SEM: IL-6 (CD3+ BAL cells; day 5 pi) | Total IC cytokine Expressing CD3^+ BAL cells (×10^3) ± SEM: TNFα (CD3+ BAL cells; day 5 pi) | Total IC cytokine Expressing CD3^+ BAL cells (×10^3) ± SEM: IFNγ (CD3+ BAL cells; day 7 pi) | Total IC cytokine Expressing CD3^+ BAL cells (×10^3) ± SEM: IL-2 (CD3+ BAL cells; day 7 pi) | Total IC cytokine Expressing CD3^+ BAL cells (×10^3) ± SEM: IL-4 (CD3+ BAL cells; day 7 pi) | Total IC cytokine Expressing CD3^+ BAL cells (×10^3) ± SEM: IL-5 (CD3+ BAL cells; day 7 pi) | Total IC cytokine Expressing CD3^+ BAL cells (×10^3) ± SEM: IL-6 (CD3+ BAL cells; day 7 pi) | other results
1 | Fkn: CX3C chemokine fractalkine (R&D), ligand of CX3CR1 [reference compound] | 3.2-3.7 | 26-30% | 7-8% | – | – | – | – | – | – | – | – | – | – | – | – | – | – | – | – | – | –
2 | NKKPGKKTTTKP [RT34] | – | – | – | 43 ± 9.4 ×10^3 | 43 ± 9.2 ×10^3 | 28 ± 8.0 ×10^3 | 47 ± 10 ×10^3 | 57 ± 12 ×10^3 | 40 ± 8.5 ×10^3 | 18 ± 2.6 ×10^3 | 19 ± 2.8 ×10^3 | 15 ± 2.2 ×10^3 | 24 ± 3.5 ×10^3 | 30 ± 4.4 ×10^3 | 27 ± 3.9 ×10^3 | 10 ± 3.5 ×10^3 | 7.7 ± 2.6 ×10^3 | 11 ± 3.6 ×10^3 | 8.7 ± 2.9 ×10^3 | 8.9 ± 3.0 ×10^3 | effect of adding peptide to heparin on plaque reduction (RSV): no effect above heparin treatment alone; Total IC cytokine Expressing CD3^+ BAL cells (×10^3) ± SEM: TNFα (CD3+ BAL cells; day 7 pi): 31 ± 5.0 ×10^3; Total IC cytokine Expressing CD3^+ BAL cells (×10^3) ± SEM: IFNγ (CD3+ BAL cells; day 14 pi): 9.7 ± 1.5 ×10^3; Total IC cytokine Expressing CD3^+ BAL cells (×10^3) ± SEM: IL-2 (CD3+ BAL cells; day 14 pi): 5.4 ± 1.9 ×10^3; Total IC cytokine Expressing CD3^+ BAL cells (×10^3) ± SEM: IL-4 (CD3+ BAL cells; day 14 pi): 8.2 ± 1.3 ×10^3; Total IC cytokine Expressing CD3^+ BAL cells (×10^3) ± SEM: IL-5 (CD3+ BAL cells; day 14 pi): 10 ± 1.7 ×10^3; Total IC cytokine Expressing CD3^+ BAL cells (×10^3) ± SEM: IL-6 (CD3+ BAL cells; day 14 pi): 11 ± 1.7 ×10^3; Total IC cytokine Expressing CD3^+ BAL cells (×10^3) ± SEM: TNFα (CD3+ BAL cells; day 14 pi): 10 ± 1.6 ×10^3
3 | TCWAICKRIPNK [RT33] | 1.6-2.2 | 16-18% | 11-16% | 24 ± 5.6 ×10^3 | 24 ± 6.0 ×10^3 | 22 ± 5.6 ×10^3 | 27 ± 6.8 ×10^3 | 28 ± 7.0 ×10^3 | 26 ± 6.5^c ×10^3 | 8.0 ± 1.0 ×10^3 | 9.0 ± 1.1 ×10^3 | 11 ± 1.3 ×10^3 | 12 ± 1.5 ×10^3 | 9.0 ± 1.2 ×10^3 | 9.0 ± 1.1 ×10^3 | 3.6 ± 0.5 ×10^3 | 2.4 ± 0.3 ×10^3 | 2.3 ± 0.3 ×10^3 | 5.2 ± 0.7 ×10^3 | 5.8 ± 0.8 ×10^3 | CX3CR1 Expression (%) Lower [1, 5]: 6-14%; CX3CR1 Expression (%) Upper [1, 5]: 16-21%; Chemotactic Indices [1, 5]: 1.8-2.2; CX3CR1 Expression (%) Lower [1, 6]: 9-14%; CX3CR1 Expression (%) Upper [1, 6]: 16-18%; Chemotactic Indices [1, 6]: 1.5-2.0; effect on chemotaxis toward G glycoprotein and Fkn ([1]; peptide added to upper Boyden chamber, in words): reduced chemotaxis toward both G glycoprotein and Fkn; Total IC cytokine Expressing CD3^+ BAL cells (×10^3) ± SEM: TNFα (CD3+ BAL cells; day 7 pi): 13 ± 0.8 ×10^3; Total IC cytokine Expressing CD3^+ BAL cells (×10^3) ± SEM: IFNγ (CD3+ BAL cells; day 14 pi): 6.5 ± 2.1 ×10^3; Total IC cytokine Expressing CD3^+ BAL cells (×10^3) ± SEM: IL-2 (CD3+ BAL cells; day 14 pi): 3.0 ± 1.0 ×10^3; Total IC cytokine Expressing CD3^+ BAL cells (×10^3) ± SEM: IL-4 (CD3+ BAL cells; day 14 pi): 8.2 ± 2.7 ×10^3; Total IC cytokine Expressing CD3^+ BAL cells (×10^3) ± SEM: IL-5 (CD3+ BAL cells; day 14 pi): 5.3 ± 1.7 ×10^3; Total IC cytokine Expressing CD3^+ BAL cells (×10^3) ± SEM: IL-6 (CD3+ BAL cells; day 14 pi): 4.7 ± 1.5 ×10^3; Total IC cytokine Expressing CD3^+ BAL cells (×10^3) ± SEM: TNFα (CD3+ BAL cells; day 14 pi): 8.7 ± 2.6 ×10^3
4 | G glycoprotein: purified G glycoprotein isolated from RSV/A2-infected Vero cells (protein) MSKNKDQRTAKTLERTWDTLNHLLFISSCLYKLNLKSVAQITLSILAMIISTSLIIAAIIFIASANHKVTPTTAIIQDATSQIKNTTPTYLTQNPQLGISPSNPSEITSQITTILASTTPGVKSTLQSTTVKTKNTTTTQTQPSKPTTKQRQNKPPSKPNNDFHFEVFNFVPCSICSNNPTCWAICKRIPNKKPGKKTTTKPTKKPTLKTTKKDPKPQTTKSKEVPTTKPTEEPTINTTKTNIITTLLTSNTTGNPELTSQMETFHSTSSEGNPSPSQVSTTSEYPSQPSSPPNTPRQ | 3.0-3.6 | 25-30% | 8-11% | – | – | – | – | – | – | – | – | – | – | – | – | – | – | – | – | – | –

Source: US8173131B2, “Compositions and methods for modulating RSV infection and immunity” (PerkinElmer Health Sciences, Inc., priority 2000, dated 2012)
